Source: patent US9334272B2, “Derivatives of purinic and pyrimidinic antiviral agents and use thereof as potent anticancer agents” (Ramot at Tel-Aviv University Ltd., priority 2007, dated 2016)

Assays:
U-251 cells [1] = experiment: Mitochondrial membrane potential (JC-1 staining), U-251 cells; format: cell-based, human; conditions: 60 μM, 24 hour treatment
phospho-H2AX (Ser139) = experiment: Phospho-H2AX Western blot, U-251 cells; format: cell-based, human; conditions: 60 μM, 0.5, 2 or 24 hours, peak after 2 hours
Description: Cell lysates or acid extracted histones were solubilized in a concentrated (×4) loading buffer (62.5 mM Tris-HCl, pH 6.8, 1% SDS, 10% glycerol v/v, 1% dithiothreitol (DTT) and 0.1 mg/ml bromophenol blue). Proteins (10-40 μg) were run on SDS-PAGE, transferred to a nitrocellulose membrane (Schleicher & Schuell, Germany) and probed with the primary antibodies, followed by incubation with a horseradish peroxidase (HRP)-goat anti-rabbit IgG or HRP-rabbit anti-mouse IgG as secondary antibodies. HRP bound to the secondary antibodies was visualized by the enhanced chemiluminescence method using the Western Blotting Luminol reagent (Santa Cruz, Calif., USA). The membrane was exposed for 5 minutes to Chemiluminescence BioMax light film (Kodak, USA) and the intensity of the bands was measured with a VersaDoc instrument with a Quantityl program (Bio-Rad, USA). The fold increase of each specific protein was determined by the ratio of band intensities of treated and untreated cells, normalized to loading control (actin or total histone H3).

U-251 cells [2] = experiment: Hoechst viability assay, U-251 glioma cells; format: cell-based, human; conditions: Homo sapiens, 72 hours, Hoechst, read-out: IC50
Description: (§1) Cells (in quadruplicate) at the specified density were suspended in 200 μL medium supplemented with 10% FCS seeded in 96-well plates for 24 hours, then exposed to the drugs for 72 hours. The viability of the cells was determined by Hoechst fluorescent assay as described by Nudelman et al., 2005. Leukemic cell viability after 72 hours of treatment was determined by an MTT (3-(4,5-dimethylthiazol-2-yl)-2,5-diphenyltetrazolium bromide) assay as described by Levovich et al., 2007.
(§2) IC50 values were determined by linear regression of the percentage of survival following drug titration.

22RV1 cells = experiment: Hoechst viability assay, 22RV1 prostate carcinoma cells; format: cell-based, human; conditions: Homo sapiens, 72 hours, Hoechst, read-out: IC50
Description: as §1, §2

U-251 cells [3] = experiment: Apoptosis/cell death by annexin V-FITC and propidium iodide FACS, U-251 cells; format: cell-based; conditions: U-251 cells, 24 hours
Description: Cells were seeded in six-well plates (10^5 cells/well) for 24 hours and were then treated as specified, trypsinized, washed with PBS, double-stained with annexin V-FITC (fluorescein isothiocyanate) and propidium iodide, according to the manufacturer's instructions and subjected to flow cytometry analysis (FACScalibur cytometer, Becton Dickinson).

[4] = Acute toxicity assay in mice; format: in vivo; conditions: male, mouse, in vivo; single per os dose, ICR mice
Description: (§3) Male ICR mice, 8 weeks old (Harlan, Israel) were acclimated for 10 days before administration of the tested compounds. The animals were monitored for two weeks and weighed three times per week.

ICR mice = experiment: Acute toxicity assay in mice; format: in vivo; conditions: 2 weeks
Description: as §3

[5] = tested on: 3LLD122 Lewis lung carcinoma; experiment: Metastatic Lewis lung carcinoma (3LL) model; format: in vivo, mice; conditions: Compound 6 30 mg/kg, Compound 7 25 mg/kg, per os thrice per week, 21 days; p<0.02 vs acyclovir
Description: Female C57/BL mice, 7-10 weeks old, were acclimated for ten days. All in vivo experiments were conducted according to the NIH Laboratory Animal Care Guidelines and in accordance with the guidelines and approval of the Tel Aviv University Committee for Animal Experimentation.
The subclone 3LLD122 of 3LL used in the study was selected for its aggressive and invasive nature. […] The animals were sacrificed after 21 days of treatment, their lungs were weighed, stained with Bouin's fixative and the metastatic lesions were scored double-blindly.

[6] = tested on: 4T1 murine breast carcinoma; experiment: Metastatic 4T1 breast carcinoma model; format: in vivo, mice; conditions: 4T1 model; for anti-cancer activity (number of metastases and lung weight): 40 or 80 mg/kg, FIG. 18
Description: The syngeneic murine breast carcinoma metastatic model was performed with 8-10 weeks old BALB-c mice implanted with 4T1 cells. When the tumor volume reached 75-180 mm^3 (after ˜10 days), treatment was initiated for an additional 21 days. At termination, the animals were sacrificed and their lungs removed, stained with Bouin's solution, and lung lesions were scored under an illuminated magnifying glass.

acetylated histone H4 = experiment: In vivo histone H4 acetylation in 4T1 tumors (Western blot); parameters: species or system mice; conditions: 100 mg/kg each, 4 hours after treatment, vs vehicle
Description: For the determination of in vitro histone acetylation, 2.5-3×10^6 cells, seeded in 100 mm culture dishes, were supplemented with RPMI medium containing 10% heat inactivated FCS and were treated with the drugs the following day. At the specified times post-treatment, the cells were removed with a rubber policeman, centrifuged, washed, lysed with lysis buffer (PBS, Nonidet® NP-40 1%, sodium deoxycholate 0.5%, sodium dodecyl sulfate (SDS) 0.1%, 1 mM phenylmethylsulfonyl fluoride (PMSF), 1 mM sodium orthovanadate, and 1 μM each of leupeptin and pepstatin) and centrifuged at 10,000 g for 10 minutes at 4° C. […] The extract was then lyophilized, and protein concentration was determined with a BCA kit (Pierce, USA). […] The fold increase of acetylated histones was determined by the ratio of band intensities of treated and untreated cells or mice, normalized to loading control (total histone H3).
Cell lysates or acid extracted histones were solubilized in a concentrated (×4) loading buffer (62.5 mM Tris-HCl, pH 6.8, 1% SDS, 10% glycerol v/v, 1% dithiothreitol (DTT) and 0.1 mg/ml bromophenol blue). […] The membrane was exposed for 5 minutes to Chemiluminescence BioMax light film (Kodak, USA) and the intensity of the bands was measured with a VersaDoc instrument with a Quantityl program (Bio-Rad, USA). […]

[7] = tested on: rat primary cardiomyocytes; experiment: ROS production (DCF-DA) in rat primary cardiomyocytes; format: cell-based; conditions: 2 μM
Description: Neonatal rat ventricular cardiomyocytes were isolated and cultured in collagen coated culture dishes as described by Shalitin et al., 1996. Growth medium contained DMEM:Ham's F12 (1:1), fetal calf serum (10%) and antibiotics. Treatment was administered to spontaneously beating cardiomyocytes 48 hours after plating.

4T1 cells = experiment: Hoechst viability assay, 4T1 breast carcinoma cells (Dox combination); format: cell-based, murine; conditions: Mus musculus, 72 hours, 3 experiments
Description: as §1, §2
The combination index for drug interaction was calculated by Chou's Median Effect Analysis (MEA) [Chou, 2006]. The combination index (CI) was defined as CI=D1/(DM)1+D2/(DM)2, where D1 and D2 are the doses of drug 1 and drug 2, respectively, (DM)1 and (DM)2 are the doses of drug 1 and drug 2 and their mixture (in a specified ratio) required to produce a median effect, e.g., IC50. CI<1, =1 or >1 indicates synergism, additive effect, and antagonism respectively.

U-251 cells [8] = experiment: Reactive oxygen species by DCF-DA FACS, U-251 cells; format: cell-based, human; conditions: 2 hour treatment
Description: ROS levels were determined by FACS analysis of U-251 cells treated with dichlorodihydrofluorescein diacetate (DCF-DA), which becomes fluorescent when oxidized.

proteasome = target: T1, proteasome (Homo sapiens, UniProt P28074); experiment: Proteasome activity assay, U-251 cells; format: cell-based; conditions: 4 or 24 hours, alone or in combination
T1 construct: proteasome activity in U-251 cells treated for 4 or 24 hours; endogenous in cells; host or cells: U-251 cells (lysates of treated cells)
T1 sequence (P28074 60-263): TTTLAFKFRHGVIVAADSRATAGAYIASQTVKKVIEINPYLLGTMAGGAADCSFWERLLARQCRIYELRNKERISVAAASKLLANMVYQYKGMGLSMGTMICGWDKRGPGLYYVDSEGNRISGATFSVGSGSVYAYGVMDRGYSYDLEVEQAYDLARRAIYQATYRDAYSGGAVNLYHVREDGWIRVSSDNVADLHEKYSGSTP
Description: The peptidase or chymotrypsin-like activity of the proteasome was assayed using N-succinyl-Leu-Leu-Val-Tyr-7-amido-4-methylcoumarin. The lysates (100 μL) were incubated with 13 (M of the substrate in 100 mM Tris, pH 7.5, for 1 hour with shaking at room temperature. The reaction was stopped by addition of ice-cold ethanol, and the samples were centrifuged for 5 minutes at 2500 g. The supernatants were collected and the fluorescence was measured with excitation/emission filters of 390/460 nm using the FluoStar fluorimeter. The protein concentration was determined using a BCATM kit (Pierce) and the proteasome activity was derived from the ratio of fluorescence at 460 nm/(g of protein. The percentage of proteasome activity was calculated relative to untreated cells.

U-251 cells [9] = experiment: Cell cycle analysis (propidium iodide flow cytometry), U-251 cells; format: cell-based, human; conditions: 24 hours
Description: Cells (4×10^5) were seeded in 35 mm culture dishes and after 24 hours were starved in medium without serum for an additional 24 hours, and then treated with the drug for an additional 24 hours. The cells were then trypsinized to a single cell suspension in PBS, washed, and resuspended in PBS at a concentration of 10^6 cells/mL. The cells were fixed with 70% ethanol for 30 minutes at 4° C., centrifuged and resuspended in 1 ml PBS containing 0.1% Tween 20 and 0.05% bovine serum albumin (BSA). RNase free of DNase was added, and the cell suspension (10^6 cells) was incubated at […] for 30 minutes. The cell suspension was then chilled on ice to a temperature in the range of 2 to 8° C. Propidium iodide (50 μg/mL) was added to the cell suspension, which was than kept in the dark. Red fluorescence (>630 nm) was analyzed on the flow cytometer.

## O=C(/C=C/c1ccccc1)Nc1nc2c(ncn2COCCOC(=O)/C=C/c2ccccc2)c(=O)[nH]1 [Compound 22, N-cinnamoyl-9-(2-cinnamoyloxy)-ethoxymethylguanine]
U-251 cells [1]
  mitochondrial membrane potential: no apparent effect
phospho-H2AX (Ser139)
  level of phosphorylated H2AX: induced an increase in the level of phosphorylated H2AX

## CCCC(CCC)C(=O)OCCOCn1cnc2c(=O)[nH]c(N)nc21 [Compound 12, 9-(2-valproyloxy)ethoxymethylguanine]
U-251 cells [2]
  IC50: 251 ± 12 µM
22RV1 cells
  IC50: 241 ± 12 µM
U-251 cells [3]
  percentage of apoptotic cells: increased the percentage of apoptotic cells in a dose dependent manner
U-251 cells [1]
  mitochondrial membrane potential: no apparent effect

## CCCC(=O)Nc1nc2c(ncn2COCCOC(=O)CCC)c(=O)[nH]1 [Compound 7, N-butyryl-9-(2-butyryloxy)ethoxymethylguanine]
[4]
  LD50 at 2 weeks: > 750 mg/kg
ICR mice; single per os dose 150 mg/kg
  Survival (%): 100%
ICR mice; single per os dose 200 mg/kg
  Survival (%): 100%
ICR mice; single per os dose 250 mg/kg
  Survival (%): 100%
ICR mice; single per os dose 500 mg/kg
  Survival (%): 100%
ICR mice; single per os dose 750 mg/kg
  Survival (%): 100%
[5]
  number of lung macro-lesions (anti-metastatic activity): significant anti-metastatic activity
[6]; 25 mg/kg, p<0.05
  lung weight: reduction in lung weight
  number of observed lung lesions: reduction in the number of observed lung lesions
[6]
  anti-cancer activity (number of metastases and lung weight): significant anti-cancer activity
Acetylated histone H4
  levels of acetylated H4 in tumors: significantly higher levels of acetylated H4

## CCCCCCCC(=O)Nc1nc2c(ncn2COCCOC(=O)CCCCCCC)c(=O)[nH]1 [Compound 8, N-octanoyl-9-(2-octanoyloxy)ethoxymethylguanine]
[6]
  anti-cancer activity (number of metastases and lung weight): little, if any anticancer activity

## CCCC(CCC)C(=O)Nc1nc2c(ncn2COCCO)c(=O)[nH]1 [Compound 23, N-valproyl-9-(2-hydroxy)ethoxymethylguanine]
U-251 cells [2]
  IC50: > 750 µM
22RV1 cells
  IC50: 402 ± 22 µM
U-251 cells [1]
  mitochondrial membrane potential: no apparent effect

## CCCCCC(=O)Nc1nc2c(ncn2COCCOC(=O)CCCCC)c(=O)[nH]1 [Compound 20, N-hexanoyl-9-(2-hexanoyloxy)-ethoxymethylguanine]
[6]
  anti-cancer activity (number of metastases and lung weight): little, if any anticancer activity

## COc1cccc2c1C(=O)c1c(O)c3c(c(O)c1C2=O)C[C@@](O)(C(=O)CO)C[C@@H]3O[C@H]1C[C@H](N)[C@H](O)[C@H](C)O1 [doxorubicin, reference compound]
[7]
  production of ROS: increased dramatically the production of ROS
4T1 cells
  IC50: 16.5 nM

## CCCC(CCC)C(=O)O [valproic acid, reference compound]
U-251 cells [8]
  level of oxidation in cells (ROS): little if any effect
proteasome
  inhibitory effect on proteasome activity: only a marginal inhibitory effect
U-251 cells [9]; 1 mM
  phase of cell-cycle arrest: G2-M phase
U-251 cells [9]; 1000 μM
  Percentage of cells in G0-G1 stage: 20.3%
  Percentage of cells in G2-M stage: 47.5%
  Percentage of cells in S stage: 32.5%
